Experimental findings from US20010014680A1 (priority 1998, published 2001) are described below.

For series [1], the target named is T1, human 5HT1A receptor (Homo sapiens, UniProt P08908).
T1 construct: expressed in transfected cells; host or cells: CHO cells, stably transfected
T1 sequence (P08908 1-422): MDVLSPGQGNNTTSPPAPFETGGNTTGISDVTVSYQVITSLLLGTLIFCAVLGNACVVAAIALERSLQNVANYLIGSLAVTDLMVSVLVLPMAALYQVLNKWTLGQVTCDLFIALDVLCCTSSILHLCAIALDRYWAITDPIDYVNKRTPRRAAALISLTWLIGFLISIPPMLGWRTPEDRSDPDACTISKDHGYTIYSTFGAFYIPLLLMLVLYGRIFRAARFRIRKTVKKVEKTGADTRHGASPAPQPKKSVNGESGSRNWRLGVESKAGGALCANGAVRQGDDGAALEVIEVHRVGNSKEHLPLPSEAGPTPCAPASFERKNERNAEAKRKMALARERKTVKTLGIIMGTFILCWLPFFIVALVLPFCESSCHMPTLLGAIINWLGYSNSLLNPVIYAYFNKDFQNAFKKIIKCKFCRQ
Kind of series: 5-HT1A Receptor Intrinsic Activity Assay (cAMP). Format: cell-based. Conditions: reversal of forskolin (1 μM) stimulated cAMP in CHO cells stably transfected with human 5-HT1A receptor; RIA. The procedure:
5-HT1A Receptor Intrinsic Activity Assay
The intrinsic activity of compounds of the present invention was established by testing the claimed compounds ability to reverse the stimulation of cyclic adenosinemonophosphate (cAMP) in CHO cells stably transfected with the human 5-HT1A receptor.
Stably transfected CHO cells were grown in DMEM containing 10% heat inactivated FBS and non-essential amino acids. The cells are plated at a density of […] per well in a 24 well plate and incubated for 2 days in a CO2 incubator. On the second day, the media is replaced with 0.5 mL treatment buffer (DMEM + 25 mM HEPES, 5 mM theophylline, 10 μM pargyline) and incubated for 10 minutes at 37° C. Wells are treated with forskolin (1 μM final concentration) followed immediately by the test compound (0.1 and 1 μM for initial screen) and incubated for an additional 10 minutes at 37° C. The reaction is terminated by removal of the media and addition of 0.5 mL ice cold assay buffer (supplied in the RIA kit). Plates are stored at −20° C. prior to assessment of cAMP formation by RIA. EC50 values are determined for the active test compounds. Compounds shown to have no agonist activities (Emax=0%) are further analyzed for their ability to reverse agonist induced activity. In separate experiments, 6 concentrations of antagonist are preincubated for 20 minutes prior to the addition of agonist and forskolin. Cells are harvested as described above. The cAMP kit is supplied by Amersham and the RIA is performed as per kit instructions, and calculations of IC50 performed by GraphPad Prism.

For series [2], the target named is T1, human 5HT1A receptor. Description: 5-HT1A Receptor Binding Assay ([3H] 8-OH-DPAT displacement). Conditions: displacement of [3H] 8-OH-DPAT (1.5 nM) in CHO cells stably transfected with human 5HT1A receptor. As for the experimental part: 5-HT1A Receptor Binding Assay
High affinity for the serotonin 5-HT1A receptor was established by testing the claimed compound's ability to displace [^3H] 8-OH-DPAT binding in CHO cells stably transfected with the human 5HT1A receptor. Stably transfected CHO cells are grown in DMEM containing 10% heat inactivated FBS and non-essential amino acids. Cells are scraped off the plate, transferred to centrifuge tubes, and washed twice by centrifugation (2000 rpm for 10 min., 4° C.) in buffer (50 mM Tris pH 7.5). The resulting pellets are aliquoted and placed at −80° C. On the day of assay, the cells are thawed on ice and resuspended in buffer. The binding assay is performed in a 96 well microtiter plate in a total volume of 250 μL. Non-specific binding is determined in the presence of […], final ligand concentration is 1.5 nM. Following a 30 minute incubation at room temperature, the reaction is terminated by the addition of ice cold buffer and rapid filtration through a GF/B filter presoaked for 30 minutes in 0.5% PEI. Compounds are initially tested in a single point assay to determine percent inhibition at […], and Ki values are determined for the active compounds.

Where a name gives a salt, the structure may show the parent alone. A value given as a limit tells only on which side of the number the result lay.

Usually melting point stands for the temperature, or range, at which the solid turns liquid. Turning to `O=C(C1CCNCC1)N1CCN(c2cccc3[nH]ccc23)CC1` (as salt: HCl) [Example 11, [4-(1H-Indol-4-yl)-piperazin-1-yl]-piperidin-4-yl-methanone], the melting point is over 240 °C.
The term Emax denotes the greatest response seen or fitted, relative to the assay's reference. Regarding `COc1ccccc1N1CCN(CC2CCNCC2)CC1` [Example 1, 1-(2-Methoxy-phenyl)-4-piperidin-4-ylmethyl-piperazine], the Emax at human 5HT1A receptor [1] turned out to be 0%.
The term Ki denotes a measure of affinity in units of concentration, obtained from inhibition or displacement. A high value points to a looser hold on the target. On to `COc1ccccc1N1CCN(CC2CCN(CC3CCCCC3)CC2)CC1` [Example 3], for which the inhibition constant (Ki) at human 5HT1A receptor [2] came to 8.4 nM. Further, on human 5HT1A receptor [1], the Emax is 89%.
The matching figures for `COc1ccccc1N1CCN(CC2CCCNC2)CC1` (centres unmarked) [Example 6, 1-(2-Methoxy-phenyl)-4-piperidin-3-ylmethyl-piperazine]: 2 nM and 0%.
Consider `COc1ccccc1N1CCN(CC2CCCN(Cc3ccccc3)C2)CC1` (centres unmarked) [Example 9, 1-(1-Benzyl-piperidin-3-ylmethyl)-4-(2-methoxy-phenyl)-piperazine], for which, on human 5HT1A receptor [2], the Ki was 14 nM. Also, the Emax on human 5HT1A receptor [1] worked out at 79%.
